Test results from publication PMC8151276, “An Integrated Approach toward NanoBRET Tracers for Analysis of GPCR Ligand Engagement” (Molecules, 2021).

Key:
Format in all cases: binding
HTR1B = biological target: T1, HTR1B (Homo sapiens, UniProt P28222); assay: NanoBRET screen HiBiT-HTR1B in HEK293
T1 construct: purchased Promega (in-house HiBiT-GPCR construct library, NanoBRET)
Method: (§1) Each tracer candidate was screened across the entire library of HiBiT-GPCR constructs using NanoBRET as the detection modality. As depicted in Figure 4A, the specificity of interactions was evaluated through decrease in BRET due to competitive displacement of a bound tracer by excess parental compound. Each tracer was analyzed for binding to each HiBiT-GPCR fusion in the absence and in the presence of competing parental compound. Briefly, HEK293 cells were transfected with HiBiT-GPCR constructs diluted into promoterless DNA to reduce expression and maximize translocation to the cell surface. Each tracer candidate was then screened at concentrations of 1 μM and 0.1 μM across cells expressing these fusions. Cells were treated for 1.5 h with tracer either alone or in the presence of 20 μM competing parental compound (i.e., control). BRET was measured upon addition of purified LgBiT and subsequent complementation with HiBiT genetically fused to a GPCR. The specificity of interactions was assessed through a decrease in BRET signal due to competitive displacement of the bound tracer. To further gauge the robustness of these interactions, the fold response over the control (i.e., BRETtracer/BRETcontrol) was calculated. We chose a 1.5-fold response, which translates to ≥7-fold signal over noise as the minimal threshold required to score an interaction as positive. […]. Below we highlight the screening results obtained for our exemplary fluorescent tracers based on Clozapine, Amitriptyline and AZD1283.
(§2) HiBiT-GPCR DNA constructs were diluted in 10 mM Tris pH 8 to a final concentration of 0.01 μg/μL, arrayed in 96-well plates and stored at −20 °C. For transfection, HEK293 cells were suspended in Opti-MEM (without phenol red) supplemented with 2% fetal bovine serum (Seradigm) and 100 units/mL penicillin–streptomycin (Gibco) at a final concentration of 220,000 cells/mL and dispensed into white 96-well plates at 90 μL/well. Subsequent transfections and screens were carried using an Agilent Bravo Automated Liquid Handling Platform. First, the 96-well HiBiT DNA arrays were diluted 25-fold in Opti-MEM (without serum or phenol red) to a final concentration of 0.0004 μg/μL and 20 μL of the diluted DNAs were transferred into new 96-well plates. Next, promoterless carrier DNA (1 μg/μL) was diluted 25-fold (0.04 μg/μL) and then dispensed into the diluted arrays at 20 μL/well. Following brief mixing, Viafect transfection reagent (Promega) diluted 16-fold into Opti-MEM was dispensed into the plates at 40 μL/well. After mixing by pipetting, plates were incubated for 10 min on the pipetting station deck. The DNA-transfection reagent complexes were then added to plates containing cells. To facilitate the screen, 10 μL of DNA-transfection reagent complexes were added in duplicates to the top 4 and bottom 4 rows, resulting in two identical 48-well arrays per plate. Plates with transfected cells were incubated for 18–20 h at 37 °C/5% CO2. A screen of each tracer across the entire library using two different concentrations requires duplicate plates of transfected cells. Depending on the number of tracers being screened, transfections can be scaled up using the same ratios. The next day, for each tracer, four 20× screening solutions in tracer dilution buffer (Promega) were prepared: two duplicates at final concentration of 20 μM and two duplicates at a final concentration of 2 μM. A competing unmodified compound was added to one of each duplicate at a final concentration of 400 μM. The four resulting solutions were diluted 4-fold in Opti-MEM without serum or phenol red to generate 5× solutions (5 µM and 0.5 µM tracer +/− 100 μM competing compound). To screen the library, a BioTek MultiFlo FX liquid dispenser was used to dispense 22.5 µL of tracer solution to the top 4 rows and 22.5 µL tracer + competing compound solution to the 4 bottom rows. Plates were briefly mixed on an orbital shaker and incubated for 1.5 h at room temperature. […]

CCR3 = biological target: T2, CCR3 (Homo sapiens, UniProt P51677); assay: NanoBRET screen HiBiT-CCR3 in HEK293
T2 construct: purchased Promega (in-house HiBiT-GPCR construct library, NanoBRET)
T2 sequence (P51677 1-355): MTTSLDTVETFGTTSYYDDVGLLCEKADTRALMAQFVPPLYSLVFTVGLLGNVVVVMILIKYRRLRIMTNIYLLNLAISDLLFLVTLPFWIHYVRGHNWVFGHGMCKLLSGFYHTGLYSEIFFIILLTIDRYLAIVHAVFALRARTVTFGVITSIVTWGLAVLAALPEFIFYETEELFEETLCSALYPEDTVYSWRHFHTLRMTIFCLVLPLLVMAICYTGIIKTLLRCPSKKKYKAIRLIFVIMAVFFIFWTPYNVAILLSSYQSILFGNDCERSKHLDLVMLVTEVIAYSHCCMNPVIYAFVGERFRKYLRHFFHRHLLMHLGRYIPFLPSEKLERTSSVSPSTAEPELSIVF
Method: as §1, §2

TBXA2R = biological target: T3, TBXA2R (Homo sapiens, UniProt P21731); assay: NanoBRET screen HiBiT-TBXA2R in HEK293
T3 construct: purchased Promega (in-house HiBiT-GPCR construct library, NanoBRET)
T3 sequence (P21731 1-343): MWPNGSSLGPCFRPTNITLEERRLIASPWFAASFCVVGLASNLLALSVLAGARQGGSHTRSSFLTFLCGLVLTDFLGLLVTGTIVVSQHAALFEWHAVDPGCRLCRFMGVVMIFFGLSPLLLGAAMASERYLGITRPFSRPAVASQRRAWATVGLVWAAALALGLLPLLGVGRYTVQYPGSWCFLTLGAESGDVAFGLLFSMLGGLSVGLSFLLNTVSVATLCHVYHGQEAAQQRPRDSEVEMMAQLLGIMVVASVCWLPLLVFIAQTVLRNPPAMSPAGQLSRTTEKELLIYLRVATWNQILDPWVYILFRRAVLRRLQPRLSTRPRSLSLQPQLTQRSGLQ
Method: as §1, §2

FPR1 = biological target: T4, FPR1 (Homo sapiens, UniProt P21462); assay: NanoBRET screen HiBiT-FPR1 in HEK293
T4 construct: purchased Promega (in-house HiBiT-GPCR construct library, NanoBRET)
T4 sequence (P21462 1-350): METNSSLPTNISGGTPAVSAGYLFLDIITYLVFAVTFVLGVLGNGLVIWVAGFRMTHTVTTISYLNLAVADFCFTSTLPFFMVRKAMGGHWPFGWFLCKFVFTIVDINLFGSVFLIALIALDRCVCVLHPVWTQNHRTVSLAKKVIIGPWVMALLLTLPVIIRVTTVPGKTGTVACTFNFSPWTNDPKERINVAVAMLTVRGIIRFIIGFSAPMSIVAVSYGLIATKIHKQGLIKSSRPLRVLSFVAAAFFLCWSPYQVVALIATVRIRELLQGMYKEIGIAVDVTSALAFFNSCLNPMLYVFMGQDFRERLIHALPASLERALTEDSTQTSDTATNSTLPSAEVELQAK
Method: as §1, §2

CNR1 = biological target: T5, CNR1 (Homo sapiens, UniProt P21554); assay: NanoBRET screen HiBiT-CNR1 in HEK293
T5 construct: purchased Promega (in-house HiBiT-GPCR construct library, NanoBRET)
T5 sequence (P21554 whole entry): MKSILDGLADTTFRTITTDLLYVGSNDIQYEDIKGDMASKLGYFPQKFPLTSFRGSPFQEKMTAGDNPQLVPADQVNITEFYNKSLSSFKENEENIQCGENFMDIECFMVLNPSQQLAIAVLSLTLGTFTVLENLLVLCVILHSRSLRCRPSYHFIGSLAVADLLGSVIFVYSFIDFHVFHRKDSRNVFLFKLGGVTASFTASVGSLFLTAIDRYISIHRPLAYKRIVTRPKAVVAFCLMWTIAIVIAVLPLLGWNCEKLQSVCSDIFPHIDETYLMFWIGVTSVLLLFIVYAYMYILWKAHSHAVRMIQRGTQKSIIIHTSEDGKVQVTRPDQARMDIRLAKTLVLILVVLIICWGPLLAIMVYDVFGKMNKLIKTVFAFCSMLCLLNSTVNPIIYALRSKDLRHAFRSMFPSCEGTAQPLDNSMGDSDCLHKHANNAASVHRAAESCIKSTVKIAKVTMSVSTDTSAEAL
Method: as §1, §2

T1 sequence (P28222 whole entry): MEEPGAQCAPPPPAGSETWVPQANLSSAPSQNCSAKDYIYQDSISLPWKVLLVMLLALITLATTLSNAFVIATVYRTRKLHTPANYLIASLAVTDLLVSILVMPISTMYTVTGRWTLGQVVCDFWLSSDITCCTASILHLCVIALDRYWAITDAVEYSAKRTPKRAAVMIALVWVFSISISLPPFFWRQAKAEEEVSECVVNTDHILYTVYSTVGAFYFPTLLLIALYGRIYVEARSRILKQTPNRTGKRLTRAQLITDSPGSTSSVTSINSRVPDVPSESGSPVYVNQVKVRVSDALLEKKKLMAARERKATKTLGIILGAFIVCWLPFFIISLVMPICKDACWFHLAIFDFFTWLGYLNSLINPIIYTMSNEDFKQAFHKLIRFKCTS

| SMILES | NanoBRET Fold Response (TBXA2R; 0.1μM tracer) | NanoBRET Fold Response (TBXA2R; 1μM tracer) | NanoBRET Fold Response (HTR1B; 0.1μM tracer) | NanoBRET Fold Response (HTR1B; 1μM tracer) | NanoBRET Fold Response (CCR3; 0.1μM tracer) | NanoBRET Fold Response (CCR3; 1μM tracer) | NanoBRET Fold Response (FPR1; 0.1μM tracer) | NanoBRET Fold Response (FPR1; 1μM tracer) | NanoBRET Fold Response (CNR1; 0.1μM tracer) | NanoBRET Fold Response (CNR1; 1μM tracer) | NanoBRET Fold Response (TBXA2R; TBXA2R, 0.1μM tracer) | NanoBRET Fold Response (TBXA2R; TBXA2R, 1μM tracer) | NanoBRET Fold Response (HTR1B; HTR1B, 0.1μM tracer) | NanoBRET Fold Response (HTR1B; HTR1B, 1μM tracer) | NanoBRET Fold Response (CCR3; CCR3, 0.1μM tracer) | NanoBRET Fold Response (CCR3; CCR3, 1μM tracer) | NanoBRET Fold Response (FPR1; FPR1, 0.1μM tracer) | NanoBRET Fold Response (FPR1; FPR1, 1μM tracer) | NanoBRET Fold Response (CNR1; CNR1, 0.1μM tracer) | NanoBRET Fold Response (CNR1; CNR1, 1μM tracer) | also measured |
| --- | --- | --- | --- | --- | --- | --- | --- | --- | --- | --- | --- | --- | --- | --- | --- | --- | --- | --- | --- | --- | --- |
| CN(CCC=C1c2ccccc2CCc2ccccc21)C(=O)CCOCCOCCOCCOCCNC(=O)CCc1ccc2n1[B-](F)(F)[N+]1=C(c3ccc[nH]3)C=CC1=C2 [Amitriptyline-e-2-NB590] | – | – | – | – | – | – | – | – | – | – | – | – | – | – | – | – | – | – | – | – | NanoBRET Fold Response (HTR1B; tracer at 1μM): 1.01; NanoBRET Fold Response (CCR3; tracer at 1μM): 0.86 |
| COc1ccc2c(n1)c(CCNC(C)=O)cn2CCNC(=O)CCc1ccc2n1[B-](F)(F)[N+]1=C(c3ccc[nH]3)C=CC1=C2 [Azamelatonin-1-NB590] | 0.84 | 0.94 | 0.74 | 0.74 | 1.27 | 0.96 | 0.96 | 1.09 | 1.01 | 0.95 | – | – | – | – | – | – | – | – | – | – | – |
| COc1ccc2[nH]c(-c3ccc(CNC(=O)CCOCCOCCOCCOCCNC(=O)CCc4ccc5n4[B-](F)(F)[N+]4=C(c6ccc[nH]6)C=CC4=C5)cc3)c(CCNC(C)=O)c2n1 [AzomelatoninICO9-2-NB590] | 1.27 | 0.99 | 0.92 | 1.13 | 1.40 | 1.25 | 1.02 | 0.90 | 0.99 | 1.02 | – | – | – | – | – | – | – | – | – | – | – |
| O=C(CCOCCOCCOCCOCCNC(=O)CCc1ccc2n1[B-](F)(F)[N+]1=C(c3ccc[nH]3)C=CC1=C2)NCCCN1CCN(C2=Nc3cc(Cl)ccc3Nc3ccccc32)CC1 [Clozapine-a-2-NB590] | – | – | – | – | – | – | – | – | – | – | 1.08 | 1.08 | 4.16 | 2.29 | 0.95 | 0.78 | 1.01 | 1.22 | 1.02 | 1.04 | – |
| CN1CCN(C2=Nc3cc(Cl)ccc3Nc3ccc(CNC(=O)CCOCCOCCOCCOCCNC(=O)CCc4ccc5n4[B-](F)(F)[N+]4=C(c6ccc[nH]6)C=CC4=C5)cc32)CC1 [Clozapine-b-2-NB590] | – | – | – | – | – | – | – | – | – | – | 0.98 | 1.08 | 2.07 | 2.97 | 0.98 | 1.00 | 0.98 | 1.00 | 1.01 | 1.03 | – |
